Consider 3 molecules from the NIST ThermoML archive (doi:10.1021/acs.jced.6b00158).

The conditions of data set [1]: 100 kPa, Liquid; for viscosity: Falling or rolling sphere viscometry; for mass density: Vibrating tube method.
Data set [2] in a line: xn = mol fraction of the nth substance listed. The note with it: 100 kPa, Liquid, x1 = 1; for viscosity: Falling or rolling sphere viscometry; for mass density: Vibrating tube method.

± gives the expanded uncertainty stated by the source.

For orientation: viscosity means the resistance of a fluid to flow. In general, mass density refers to mass per unit of volume. Consider `CC(C)CO` [2-methyl-1-propanol], for which the viscosity in data set [1] (293.15 K) is recorded as 4.023 ± 0.069 mPa·s; in data set [1] (298.15 K) it was 3.404 ± 0.067 mPa·s; in data set [1] (303.15 K), 2.882 ± 0.065 mPa·s; in data set [1] (308.15 K), 2.475 ± 0.064 mPa·s; in data set [1] (313.15 K), 2.097 ± 0.063 mPa·s. Moreover, the mass density worked out at 801.96 ± 2 kg/m3 in data set [1] (293.15 K); 798.12 ± 2 kg/m3 in data set [1] (298.15 K); 794.22 ± 2 kg/m3 in data set [1] (303.15 K); 790.27 ± 2 kg/m3 in data set [1] (308.15 K); 786.27 ± 2 kg/m3 in data set [1] (313.15 K).
In the case of `CC(C)CO` [2-methyl-1-propanol] + NC1CCCCC1, the viscosity in data set [2] (293.15 K) came out at 4.023 ± 0.069 mPa·s; in data set [2] (298.15 K) it was 3.404 ± 0.067 mPa·s; in data set [2] (303.15 K), 2.882 ± 0.065 mPa·s; in data set [2] (308.15 K), 2.475 ± 0.064 mPa·s; in data set [2] (313.15 K), 2.097 ± 0.063 mPa·s. For the same molecule, the mass density in data set [2] (293.15 K) amounted to 801.96 ± 2 kg/m3; in data set [2] (298.15 K), 798.12 ± 2 kg/m3; in data set [2] (303.15 K), 794.22 ± 2 kg/m3; in data set [2] (308.15 K), 790.27 ± 2 kg/m3; in data set [2] (313.15 K) it was 786.27 ± 2 kg/m3.
In the case of `NC1CCCCC1` [cyclohexylamine], the viscosity in data set [1] (293.15 K) stood at 2.134 ± 0.063 mPa·s; in data set [1] (298.15 K) it was 1.944 ± 0.062 mPa·s; in data set [1] (303.15 K), 1.786 ± 0.062 mPa·s; in data set [1] (308.15 K) it was 1.572 ± 0.062 mPa·s; in data set [1] (313.15 K), 1.417 ± 0.061 mPa·s. Also, the mass density in data set [1] (293.15 K) is recorded as 866.85 ± 2 kg/m3; in data set [1] (298.15 K) it was 862.31 ± 2 kg/m3; in data set [1] (303.15 K), 857.79 ± 2 kg/m3; in data set [1] (308.15 K) it was 853.24 ± 2 kg/m3; in data set [1] (313.15 K), 848.71 ± 2 kg/m3.
